# Entries after “also recorded” stand apart in the source; their conditions may differ.
# Legend:
# [1] = Hygroscopicity (DVS moisture sorption/desorption) studies; assay type: physicochemical; settings: for hygroscopicity / XRPD pattern / solid form after full adsorption/desorption cycle: DVS; for hygroscopicity: 0-95% RH; for XRPD pattern / solid form after full adsorption/desorption cycle: 0-95-0% RH; for moisture sorption mass change of the starting mass: RH increased from about 0% to about 95% RH, about 25° C.
# Method: Hygroscopicity studies. The hygroscopicity of various solid forms was studied using a Surface Measurement Systems DVS instrument. Typically a sample size of between about 10-50 mg was loaded into the DVS instrument sample pan and the sample was analyzed on a DVS automated sorption analyzer at about 25° C. The relative humidity was increased in increments of about 10% from about 0% to about 95% RH. The relative humidity was then decreased in a similar manner to accomplish a full adsorption/desorption cycle. The mass was recorded at periodic intervals throughout the experiment.
# [2] = Interconversion studies of solid forms; assay type: physicochemical; settings: EQ in acetone:ethanol (1:1) at 25° C., at least 2 days
# Method: Interconversion Studies. Interconversion experiments were performed by making slurries of a solid form in a saturated solvent. The slurries were agitated for at least 2 days at about 25° C. The saturated solution was removed by filtration and the solid was dried in the air.
# [3] = Compression studies of solid forms; settings: 2000 psi for at least one minute
# [4] = Stability studies of solid forms; assay type: physicochemical; settings: for Stability: Analysis by XRPD (solid form after stress) / Stability: Appearance: 40° C./75% RH, 4 weeks
# Method: Stability Studies. The stabilities of Forms A, B, C and D were studied by exposing the solid samples to the stress condition of 40° C./75% RH for four weeks. Moreover, the stabilities of Forms A, B, C and D in different solvents were studied by equilibration in different solvents at 40° C. for four weeks. The slurries then were filtered and dried in the air. Solid samples obtained from the stability experiments were analyzed by XRPD and DSC.
# [5] = biological target: PDE3 from human platelets (Homo sapiens, UniProt Q14432); test: PDE3 enzyme assay; assay type: biochemical; settings: from Table 1 data
# PDE3 from human platelets, sequence (Q14432 whole entry): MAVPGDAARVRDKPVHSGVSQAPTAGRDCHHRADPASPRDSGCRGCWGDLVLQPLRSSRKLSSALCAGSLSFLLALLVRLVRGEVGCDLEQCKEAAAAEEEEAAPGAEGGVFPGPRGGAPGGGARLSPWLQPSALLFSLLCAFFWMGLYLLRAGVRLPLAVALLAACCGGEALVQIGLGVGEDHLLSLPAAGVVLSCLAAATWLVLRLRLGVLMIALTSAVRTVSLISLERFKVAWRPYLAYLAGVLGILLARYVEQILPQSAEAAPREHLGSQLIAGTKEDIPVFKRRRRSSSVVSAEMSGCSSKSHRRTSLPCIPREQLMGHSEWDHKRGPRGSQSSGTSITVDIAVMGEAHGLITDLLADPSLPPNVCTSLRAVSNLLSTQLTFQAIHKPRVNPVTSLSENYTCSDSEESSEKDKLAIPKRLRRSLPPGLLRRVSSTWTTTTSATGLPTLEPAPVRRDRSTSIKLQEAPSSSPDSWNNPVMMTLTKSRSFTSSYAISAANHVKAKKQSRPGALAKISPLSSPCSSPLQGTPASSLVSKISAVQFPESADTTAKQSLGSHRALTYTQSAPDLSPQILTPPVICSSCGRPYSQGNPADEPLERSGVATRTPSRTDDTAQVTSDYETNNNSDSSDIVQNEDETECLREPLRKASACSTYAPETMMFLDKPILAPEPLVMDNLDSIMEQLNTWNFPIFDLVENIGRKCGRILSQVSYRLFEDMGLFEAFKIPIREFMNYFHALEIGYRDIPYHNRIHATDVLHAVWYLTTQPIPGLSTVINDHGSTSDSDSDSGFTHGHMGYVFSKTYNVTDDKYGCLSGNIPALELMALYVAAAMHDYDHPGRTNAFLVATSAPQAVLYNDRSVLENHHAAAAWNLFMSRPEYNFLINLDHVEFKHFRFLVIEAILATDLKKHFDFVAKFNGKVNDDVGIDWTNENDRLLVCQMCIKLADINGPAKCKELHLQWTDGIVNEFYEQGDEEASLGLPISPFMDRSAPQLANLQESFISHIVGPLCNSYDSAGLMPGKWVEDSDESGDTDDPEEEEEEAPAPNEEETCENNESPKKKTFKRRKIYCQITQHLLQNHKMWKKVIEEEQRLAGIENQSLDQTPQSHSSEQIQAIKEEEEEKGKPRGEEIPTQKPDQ
# bovine PDE1 = test: PDE1 enzyme assay; assay type: biochemical
# [6] = biological target: PDE5 from human platelets (Homo sapiens, UniProt O76074); test: PDE5 enzyme assay; assay type: biochemical; settings: from Table 1 data
# PDE4 (from U937 cells) = test: PDE4 (U937 cell-derived) enzyme assay; assay type: biochemical, human; settings: 1 μM cAMP
# human PDE2 = human PDE2 (Homo sapiens, UniProt O00408); test: PDE2 enzyme assay; assay type: biochemical; settings: from Table 1 data
# human PDE2, sequence (O00408 whole entry): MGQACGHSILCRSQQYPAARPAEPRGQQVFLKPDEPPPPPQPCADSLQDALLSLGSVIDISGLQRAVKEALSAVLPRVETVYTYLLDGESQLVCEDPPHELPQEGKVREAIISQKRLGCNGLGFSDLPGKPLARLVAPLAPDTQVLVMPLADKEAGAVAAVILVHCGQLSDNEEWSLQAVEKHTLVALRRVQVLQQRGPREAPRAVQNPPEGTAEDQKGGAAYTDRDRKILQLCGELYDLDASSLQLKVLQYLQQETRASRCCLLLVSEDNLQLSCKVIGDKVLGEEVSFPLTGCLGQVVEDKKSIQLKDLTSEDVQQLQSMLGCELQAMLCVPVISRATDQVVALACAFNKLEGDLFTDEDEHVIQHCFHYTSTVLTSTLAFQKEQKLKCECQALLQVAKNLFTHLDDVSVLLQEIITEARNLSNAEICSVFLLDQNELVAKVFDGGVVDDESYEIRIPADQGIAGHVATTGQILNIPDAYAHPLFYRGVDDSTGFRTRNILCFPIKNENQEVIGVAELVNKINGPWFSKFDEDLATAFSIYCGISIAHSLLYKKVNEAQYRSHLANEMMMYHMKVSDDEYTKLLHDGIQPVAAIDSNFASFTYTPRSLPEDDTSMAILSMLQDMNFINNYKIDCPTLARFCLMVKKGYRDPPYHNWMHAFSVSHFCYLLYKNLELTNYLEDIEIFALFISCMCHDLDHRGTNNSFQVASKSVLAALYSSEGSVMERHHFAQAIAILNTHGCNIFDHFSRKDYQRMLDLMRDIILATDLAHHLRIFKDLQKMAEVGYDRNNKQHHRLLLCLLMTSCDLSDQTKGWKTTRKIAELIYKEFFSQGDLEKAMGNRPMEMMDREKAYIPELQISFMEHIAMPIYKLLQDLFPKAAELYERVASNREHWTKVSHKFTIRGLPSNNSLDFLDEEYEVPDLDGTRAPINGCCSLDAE
# [7] = EQ in ethanol at 40° C. for 4 weeks
# [8] = EQ in heptane at 40° C. for 4 weeks
# [9] = EQ in toluene at 40° C. for 4 weeks
# [10] = EQ in water at 40° C. for 4 weeks
SMILES,hygroscopicity [1],XRPD pattern / solid form after full adsorption/desorption cycle [1],moisture sorption mass change of the starting mass [1],Interconversion: Analysis by XRPD (solid form after equilibration) [2],physical stability upon compression (XRPD) [3],Stability: Analysis by XRPD (solid form after stress) [4],Stability: Appearance [4],"Stability: Analysis by XRPD (solid form after equilibration) [4, 7]","Stability: Analysis by XRPD (solid form after equilibration) [4, 8]","Stability: Analysis by XRPD (solid form after equilibration) [4, 9]","Stability: Analysis by XRPD (solid form after equilibration) [4, 10]",PDE Specificity Ratio PDE4/PDE3 [5] [fold],PDE1 (% inhib at 10 μM) (bovine PDE1; 10 μM) [%],PDE Specificity Ratio PDE4/PDE1 (bovine PDE1; from Table 1 data) [fold],PDE Specificity Ratio PDE4/PDE5 [6] [fold],IC50 (PDE4 (from U937 cells)) [nM],PDE Specificity Ratio PDE4/PDE2 (human PDE2) [fold]
"CCOc1cc(C(CS(C)(=O)=O)N2C(=O)c3cccc(NC(C)=O)c3C2=O)ccc1OC (single isomer, unassigned; (+)) [Form G, (+)-2-[1-(3-ethoxy-4-methoxyphenyl)-2-methylsulfonylethyl]-4-acetylaminoisoindoline-1,3-dione]",substantially nonhygroscopic,substantially unchanged; also recorded: none of the forms analyzed underwent substantial solid-state transformation,about 0.4%,converts to Form B,,,,,,,,,,,,,
"CCOc1cc(C(CS(C)(=O)=O)N2C(=O)c3cccc(NC(C)=O)c3C2=O)ccc1OC (single isomer, unassigned; (+)) [Form F, (+)-2-[1-(3-ethoxy-4-methoxyphenyl)-2-methylsulfonylethyl]-4-acetylaminoisoindoline-1,3-dione]",substantially nonhygroscopic,substantially unchanged; also recorded: none of the forms analyzed underwent substantial solid-state transformation,about 0.2%,stable; also recorded: Form F,,,,,,,,,,,,,
"CCOc1cc(C(CS(C)(=O)=O)N2C(=O)c3cccc(NC(C)=O)c3C2=O)ccc1OC (single isomer, unassigned; (+)) [Form A, (+)-2-[1-(3-ethoxy-4-methoxyphenyl)-2-methylsulfonylethyl]-4-acetylaminoisoindoline-1,3-dione]",substantially nonhygroscopic,substantially unchanged; also recorded: none of the forms analyzed underwent substantial solid-state transformation,about 0.4%,Form B,substantially physically stable,stable; also recorded: Form A,White solid,stable; also recorded: Form F,stable; also recorded: Form A,converts to Form C,stable; also recorded: Form A,,,,,,
"CCOc1cc(C(CS(C)(=O)=O)N2C(=O)c3cccc(NC(C)=O)c3C2=O)ccc1OC (single isomer, unassigned; (+)) [Form B, (+)-2-[1-(3-ethoxy-4-methoxyphenyl)-2-methylsulfonylethyl]-4-acetylaminoisoindoline-1,3-dione]",substantially nonhygroscopic,substantially unchanged; also recorded: none of the forms analyzed underwent substantial solid-state transformation,about 0.6%,,substantially physically stable,stable; also recorded: Form B,White solid,stable; also recorded: Form B,stable; also recorded: Form B,,stable; also recorded: Form B,,,,,,
"CCOc1cc(C(CS(C)(=O)=O)N2C(=O)c3cccc(NC(C)=O)c3C2=O)ccc1OC (single isomer, unassigned; (+)) [Form E, (+)-2-[1-(3-ethoxy-4-methoxyphenyl)-2-methylsulfonylethyl]-4-acetylaminoisoindoline-1,3-dione]",hygroscopic,substantially unchanged; also recorded: none of the forms analyzed underwent substantial solid-state transformation,about 5.1%,Form B,,,,,,,,,,,,,
"CCOc1cc(C(CS(C)(=O)=O)N2C(=O)c3cccc(NC(C)=O)c3C2=O)ccc1OC (single isomer, unassigned; (+)) [Form C, (+)-2-[1-(3-ethoxy-4-methoxyphenyl)-2-methylsulfonylethyl]-4-acetylaminoisoindoline-1,3-dione]",substantially nonhygroscopic,substantially unchanged; also recorded: none of the forms analyzed underwent substantial solid-state transformation,about 0.5%,Form C,substantially physically stable,stable; also recorded: Form C,Yellow solid,stable; also recorded: Form C,stable; also recorded: Form C,stable; also recorded: Form C,stable; also recorded: Form C,,,,,,
"CCOc1cc(C(CS(C)(=O)=O)N2C(=O)c3cccc(NC(C)=O)c3C2=O)ccc1OC (racemic) [Racemic Compound, 2-[1-(3-Ethoxy-4-methoxyphenyl)-2-methylsulfonylethyl]-4-acetylaminoisoindoline-1,3-dione]",,,,,,,,,,,,>670,9,>2700,>12000,81.8,>800
"CCOc1cc(C(CS(C)(=O)=O)N2C(=O)c3cccc(NC(C)=O)c3C2=O)ccc1OC (single isomer, unassigned; (+)) [Form D, (+)-2-[1-(3-ethoxy-4-methoxyphenyl)-2-methylsulfonylethyl]-4-acetylaminoisoindoline-1,3-dione]",slightly hygroscopic,substantially unchanged; also recorded: none of the forms analyzed underwent substantial solid-state transformation,about 1.5%,Form B,substantially physically stable,stable; also recorded: Form D,White solid,converts to Form B,converts to Form B,converts to Form C,converts to Form B,,,,,,

# — patent publication US8629173B2, “Solid forms comprising (+)-2-[1-(3-ethoxy-4-methoxyphenyl)-2-methylsulfonylethyl]-4-acetylaminoisoindoline-1,3-dione, compositions thereof, and uses thereof” (Celgene Corporation, priority 2002, dated 2014)
